Consider 10 compounds from ChEMBL document CHEMBL1201862, “PubChem BioAssay data set” (2004).

Test systems include SNB-75; OVCAR-5; MOLT-4; OVCAR-3; PC-3; ACHN; UACC-62; U-251; SF-539; UACC-257; KM12; RPMI-8226; SR; SN12C; NCI/ADR-RES; HT-29; SK-MEL-2; NCI-H460; LOX IMVI; SK-MEL-5.
Test in all cases: DTP human tumour cell line panel, 48 h

The term GI50 denotes the concentration giving 50% growth inhibition.

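Cultured in 96-well plates, cells were exposed to test compound for 48 hours across five concentrations. GI50 is the concentration that inhibits growth by half.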 The source made the active and inactive calls. No stated cut-off is given here; in the data, active = GI50 up to about 1.1 µM and inactive = higher.

On to `C1=CC2C=CC(C=C1)P2c1ccccc1` (stereo not given), for which the GI50 in the experiment with SNB-75, with OVCAR-5, in the experiment on MOLT-4, with OVCAR-3, with PC-3 and in the experiment with ACHN was > 100 µM (inactive) throughout. Further, the GI50 in the experiment with UACC-62, in the experiment on U-251, with SF-539, with UACC-257, in the experiment with KM12 and in the experiment on RPMI-8226 was > 100 µM (inactive) each time. Further, the GI50 in the experiment with SR, with SN12C, in the experiment on NCI/ADR-RES, with HT-29, in the experiment on SK-MEL-2 and with NCI-H460 was > 100 µM (inactive) in each case. In addition, the GI50 in the experiment with LOX IMVI and with SK-MEL-5 was > 100 µM (inactive) in each case.
`CC1(C)OC[C@@H](/C=C\CCO[Si](c2ccccc2)(c2ccccc2)C(C)(C)C)N1C(=O)c1ccccc1`: the GI50 with SNB-75 is > 100 µM (inactive); with OVCAR-5 it was 16.3 µM (inactive); in the experiment on MOLT-4, 3.13 µM (inactive); in the experiment with OVCAR-3 it was 7.5 µM (inactive); in the experiment on PC-3, 4.07 µM (inactive); in the experiment on ACHN it was 12.3 µM (inactive). Further, the GI50 was 9.91 µM (inactive) in the experiment with UACC-62; 12.7 µM (inactive) in the experiment on U-251; 18.3 µM (inactive) with SF-539; 3.49 µM (inactive) in the experiment with UACC-257; 7.96 µM (inactive) in the experiment with KM12; 2.86 µM (inactive) in the experiment with RPMI-8226. Also, the GI50 in the experiment with SR was 2.79 µM (inactive); in the experiment with SN12C, 11.1 µM (inactive); in the experiment on NCI/ADR-RES, 9.14 µM (inactive); with HT-29 it was 4.14 µM (inactive); with SK-MEL-2 it was 5.24 µM (inactive); in the experiment with NCI-H460 it was 3.79 µM (inactive). The results for the GI50 with LOX IMVI and with SK-MEL-5 were 13.6 µM (inactive) and 2.51 µM (inactive), respectively.
`COc1ccc(C2CCc3c(cnc4nc(N)nc(N)c34)C2)cc1` (stereo not given): the GI50 in the experiment on SNB-75 is 10.3 µM (inactive); in the experiment on OVCAR-5 it was 13.9 µM (inactive); in the experiment on MOLT-4 it was 9.48 µM (inactive); in the experiment with OVCAR-3 it was 62.5 µM (inactive); with PC-3 it was > 100 µM (inactive); in the experiment on ACHN it was 8.28 µM (inactive). Besides, the GI50 was 3.35 µM (inactive) in the experiment with UACC-62; 9.29 µM (inactive) in the experiment on U-251; 26.5 µM (inactive) in the experiment with SF-539; > 100 µM (inactive) in the experiment on UACC-257; > 100 µM (inactive) in the experiment on KM12; > 100 µM (inactive) in the experiment with RPMI-8226. Also, the GI50 is 8 µM (inactive) in the experiment with SR; 7.16 µM (inactive) with SN12C; > 100 µM (inactive) in the experiment on NCI/ADR-RES; 4.69 µM (inactive) in the experiment on HT-29; 47.4 µM (inactive) in the experiment with SK-MEL-2; 4.89 µM (inactive) in the experiment on NCI-H460. Moreover, the GI50 in the experiment with LOX IMVI is 0.968 µM (active); in the experiment on SK-MEL-5, 11 µM (inactive).
For the compound `Cc1ccc(/N=N/c2ccc(O)c(CN(C)C)c2)cc1`, the GI50 in the experiment with SNB-75 was 21.6 µM (inactive); in the experiment with OVCAR-5, 14.4 µM (inactive); in the experiment on MOLT-4, 19.2 µM (inactive); in the experiment on OVCAR-3 it was 15.7 µM (inactive); with PC-3, 19.4 µM (inactive); in the experiment on ACHN, 17.3 µM (inactive). The GI50 with UACC-62 was 20.3 µM (inactive); with U-251 it was 32.1 µM (inactive); in the experiment on SF-539, 17.7 µM (inactive); in the experiment on UACC-257, 17.8 µM (inactive); in the experiment with KM12, 15.8 µM (inactive); with RPMI-8226, 17.8 µM (inactive). Moreover, the GI50 is 24.8 µM (inactive) in the experiment with SR; 35.8 µM (inactive) in the experiment on SN12C; 22.6 µM (inactive) in the experiment with NCI/ADR-RES; 17.2 µM (inactive) in the experiment with HT-29; 15.2 µM (inactive) in the experiment with SK-MEL-2; 16.5 µM (inactive) in the experiment on NCI-H460. Moreover, the values for the GI50 in the experiment on LOX IMVI and in the experiment on SK-MEL-5 were 14 µM (inactive) and 14.5 µM (inactive), respectively.
For the compound `O=C1CCN2c3ccccc3[C@H]3Cc4cccc(c4[C@@H]2C3)CCO1`, the GI50 is 27.4 µM (inactive) in the experiment on SNB-75; > 100 µM (inactive) with OVCAR-5; 20.3 µM (inactive) with MOLT-4; 26.5 µM (inactive) in the experiment on OVCAR-3; 32 µM (inactive) in the experiment on PC-3; 44 µM (inactive) with ACHN. The GI50 in the experiment on UACC-62 was 43.5 µM (inactive); in the experiment with U-251, 40.5 µM (inactive); with SF-539, 79.3 µM (inactive); in the experiment with UACC-257, 29.4 µM (inactive); in the experiment with KM12, 34.9 µM (inactive); in the experiment on RPMI-8226, 31 µM (inactive). The GI50 was 26.1 µM (inactive) in the experiment with SR; 16.3 µM (inactive) with SN12C; 23.6 µM (inactive) in the experiment with NCI/ADR-RES; 36.6 µM (inactive) with HT-29; 38 µM (inactive) in the experiment with SK-MEL-2; > 100 µM (inactive) in the experiment on NCI-H460. Also, the GI50 with LOX IMVI was 34.6 µM (inactive); in the experiment on SK-MEL-5, 22.1 µM (inactive).
`Oc1ccc2c(c1)CCc1c-2n(CCN2CCOCC2)c2ccc(O)cc12`: the GI50 was 16.8 µM (inactive) in the experiment with SNB-75; 78.3 µM (inactive) with OVCAR-5; 33.4 µM (inactive) in the experiment on MOLT-4; 48.6 µM (inactive) in the experiment with OVCAR-3; 35.3 µM (inactive) in the experiment on PC-3; 16.1 µM (inactive) in the experiment with ACHN. Moreover, the GI50 in the experiment on UACC-62 is 20.6 µM (inactive); in the experiment on U-251, 35.9 µM (inactive); in the experiment on SF-539, 27.9 µM (inactive); in the experiment with UACC-257, 37.2 µM (inactive); with KM12, 20.8 µM (inactive); in the experiment on RPMI-8226, 29.1 µM (inactive). Moreover, the GI50 with SR is > 100 µM (inactive); with SN12C, > 100 µM (inactive); in the experiment with NCI/ADR-RES, 21 µM (inactive); in the experiment with SK-MEL-2 it was 27.1 µM (inactive); in the experiment with NCI-H460 it was 33.2 µM (inactive); in the experiment with LOX IMVI, 41.2 µM (inactive). Further, in the experiment on SK-MEL-5, the GI50 was 15.7 µM (inactive).
Consider `Nc1nc(=O)n(C2OC(CO)C(O)C2O)c2ncc(-c3ccc(-c4ccccc4)cc3)nc12` (stereo not given), for which the GI50 is 28.4 µM (inactive) with SNB-75; > 100 µM (inactive) in the experiment on OVCAR-5; > 100 µM (inactive) in the experiment with MOLT-4; > 100 µM (inactive) in the experiment with PC-3; > 100 µM (inactive) in the experiment on ACHN; 66.4 µM (inactive) in the experiment on UACC-62. Also, the GI50 in the experiment on U-251 was 31.3 µM (inactive); with SF-539 it was > 100 µM (inactive); with UACC-257, > 100 µM (inactive); in the experiment on KM12, > 100 µM (inactive); in the experiment with RPMI-8226, > 100 µM (inactive); in the experiment on SR, 3.63 µM (inactive). Also, the GI50 in the experiment with SN12C is > 100 µM (inactive); in the experiment on NCI/ADR-RES, > 100 µM (inactive); in the experiment on HT-29, > 100 µM (inactive); with SK-MEL-2, > 100 µM (inactive); in the experiment on NCI-H460 it was > 100 µM (inactive); with LOX IMVI, 83.2 µM (inactive). In addition, the GI50 in the experiment with SK-MEL-5 is > 100 µM (inactive).
Turning to `Cc1ccc2c(c1)C(=C(C#N)C#N)CCCS2(=O)=O`, the GI50 in the experiment with SNB-75, in the experiment on OVCAR-5, with MOLT-4, in the experiment on OVCAR-3, in the experiment on PC-3 and with ACHN was > 100 µM (inactive) throughout. Besides, the GI50 in the experiment on UACC-62, in the experiment with U-251, in the experiment on SF-539, with UACC-257, with KM12 and in the experiment on RPMI-8226 was > 100 µM (inactive) in each case. For the same compound, the GI50 in the experiment with SR, with SN12C, in the experiment with NCI/ADR-RES, in the experiment on HT-29, with SK-MEL-2 and in the experiment with NCI-H460 was > 100 µM (inactive) throughout. Besides, in the experiment on LOX IMVI, the GI50 is > 100 µM (inactive).
With `Clc1ccc(C(Cc2cccc(Cl)c2)c2c(Cl)nc(N3CCNCC3)nc2Cl)cc1` (stereo not given), the GI50 in the experiment with SNB-75 is 13.3 µM (inactive); in the experiment on OVCAR-5, 12.5 µM (inactive); in the experiment on MOLT-4 it was 12.2 µM (inactive); in the experiment with OVCAR-3, 15.8 µM (inactive); in the experiment with PC-3, 16.9 µM (inactive); in the experiment with ACHN it was 15.5 µM (inactive). Moreover, the GI50 in the experiment with UACC-62 is 19.5 µM (inactive); with U-251 it was 16.4 µM (inactive); in the experiment with SF-539, 19.5 µM (inactive); in the experiment on UACC-257, 18.8 µM (inactive); in the experiment on KM12, 13.9 µM (inactive); with RPMI-8226, 22.3 µM (inactive). Further, the GI50 with SR was 5.38 µM (inactive); in the experiment with NCI/ADR-RES it was 18 µM (inactive); in the experiment on HT-29, > 100 µM (inactive); in the experiment with SK-MEL-2 it was 21.6 µM (inactive); in the experiment on NCI-H460, 16.7 µM (inactive); in the experiment on LOX IMVI, 12.9 µM (inactive). In the experiment on SK-MEL-5, the GI50 was 16.1 µM (inactive).
For the compound `CCc1nc2ccc(NCCN(C)C)c3c(=O)c4ccccc4n1c23`, the GI50 in the experiment with SNB-75 is 3 µM (inactive); in the experiment on OVCAR-5 it was 1.67 µM (inactive); with MOLT-4, 0.175 µM (active); in the experiment with OVCAR-3 it was 0.979 µM (active); in the experiment with PC-3, 0.8 µM (active); with ACHN it was 0.417 µM (active). The GI50 in the experiment on UACC-62 was 2.14 µM (inactive); with U-251 it was 0.796 µM (active); in the experiment with SF-539, 1.67 µM (inactive); in the experiment on UACC-257, 2.48 µM (inactive); with KM12 it was 0.701 µM (active); with RPMI-8226, 0.752 µM (active). The GI50 in the experiment with SR is 0.193 µM (active); with SN12C, 0.404 µM (active); with NCI/ADR-RES, 0.431 µM (active); in the experiment on HT-29, 0.489 µM (active); in the experiment with SK-MEL-2 it was 3.07 µM (inactive); in the experiment with NCI-H460 it was 0.23 µM (active). Besides, the GI50 in the experiment with LOX IMVI was 0.6 µM (active).
